What was measured:
surinam grass = test: Test B pre/postemergence surinam grass; type: in vivo, Brachiaria decumbens; conditions: for B. signalgrass plant response rating (0 to 10 scale): 0 is no effect
In short: (§1)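 Herbicidal effect was estimated by eye on a ten-point control scale after plants spent twelve to sixteen days in a greenhouse following soil or foliar treatment. Foliar sprays targeted plants at one to four leaves; all doses were formulated in a non-phytotoxic solvent with surfactant.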

bedstraw = test: Test B pre/postemergence bedstraw; type: in vivo, Galium aparine; conditions: for Bedstraw plant response rating (0 to 10 scale): 0 is no effect
In short: as §1

bamyardgrass = test: Test B flood test barnyardgrass; type: in vivo, Echinochloa crus-galli
In short: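 Plants were grown to the 2-leaf stage before treatment with test chemical, then held in a greenhouse for twelve to sixteen days. Injury was visually rated against untreated controls on a 0–10 scale, where 0 is no effect and 10 is complete control.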

wild oat = test: Test B pre/postemergence wild oat; type: in vivo, Avena fatua; conditions: for Wild oats plant response rating (0 to 10 scale): 0 is no effect
In short: as §1

[1] = Postemergence, Rate 62 g/ha, scale 0 to 10, 0 is no effect, 10 is complete control
[2] = Postemergence, Rate 250 g/ha, scale 0 to 10, 0 no effect, 10 complete control
[3] = Preemergence, Rate 62 g/ha, scale 0 to 10 (0 no effect, 10 complete control)
[4] = Preemergence, Rate 125 g/ha, scale 0 to 10 (0 no effect, 10 complete control)
[5] = Preemergence, Rate 500 g/ha, scale 0 (no effect) to 10 (complete control)
[6] = Rate 125 g/ha, Postemergence, scale 0 to 10, 0 no effect, 10 complete control
[7] = Rate 500 g/ha, Postemergence, scale of 0 to 10 where 0 is no effect and 10 is complete control
[8] = Preemergence, Rate 250 g/ha, scale of 0 to 10 where 0 is no effect and 10 is complete control
[9] = Rate 125 g/ha, Postemergence section (flood test species), scale 0 to 10, 0 no effect, 10 complete control
[10] = Rate 500 g/ha, listed under Postemergence (flood test species), scale 0 to 10, 0 no effect, 10 complete control
[11] = flood test, listed under Postemergence, Rate 250 g/ha, scale 0 to 10, 0 no effect, 10 complete control
[12] = Postemergence, Rate 125 g/ha, scale of 0 to 10 where 0 is no effect and 10 is complete control
[13] = Rate 250 g/ha, Postemergence, scale 0 to 10, 0 is no effect, 10 is complete control
[14] = Rate 500 g/ha, Postemergence, scale 0 to 10, 0 no effect, 10 complete control
[15] = Preemergence, Rate 125 g/ha, 10 is complete control
[16] = Preemergence, Rate 250 g/ha, scale 0 to 10, 0 is no effect, 10 is complete control
[17] = Preemergence, Rate 500 g/ha, scale 0 to 10 (0 no effect, 10 complete control)
[18] = Rate 62 g/ha, Postemergence, scale of 0 to 10 where 0 is no effect and 10 is complete control
[19] = Postemergence (flood test species), Rate 125 g/ha, scale of 0 to 10 where 0 is no effect and 10 is complete control
[20] = Rate 62 g/ha, Postemergence section, flood test species, scale of 0 to 10 where 0 is no effect and 10 is complete control
[21] = Rate 250 g/ha, Postemergence (flood test), scale 0 to 10, 0 is no effect, 10 is complete control
[22] = Rate 500 g/ha, Postemergence, scale 0 to 10
[23] = Rate 500 g/ha, listed under Postemergence (flood test species), scale 0 to 10
[24] = Preemergence, Rate 62 g/ha, scale of 0 to 10 where 0 is no effect and 10 is complete control

CC(C)N(C(=O)n1oc(=O)n(-c2cccc3c2CCCC3)c1=O)c1ccc(F)cc1 [Compound 90] was tested, and the “B. signalgrass plant response rating” value (surinam grass; [1]) was 0, the “B. signalgrass plant response rating” value (surinam grass; [2]) was 0 and the “B. signalgrass plant response rating” value (surinam grass; [3]) was 0. For the same compound, the “Plant response rating, B. signalgrass” value (surinam grass; [4]) was 0, the “B. signalgrass plant response rating” value (surinam grass; [5]) was 3 and the “B. signalgrass plant response rating” value (surinam grass; [6]) was 0. For the same compound, the “B. signalgrass plant response rating” value (surinam grass; [7]) was 0, the “Bedstraw plant response rating” value (bedstraw; [1]) was 0 and the “Bedstraw plant response rating” value (bedstraw; [3]) was 0. For the same compound, the “Plant response rating, Bedstraw” value (bedstraw; [4]) was 0, the “Plant response rating, Bedstraw” value (bedstraw; [8]) was 0 and the “Bedstraw plant response rating” value (bedstraw; [5]) was 0. The “Barnyardgrass plant response rating” value (bamyardgrass; [1]) was 0, the “Barnyardgrass plant response rating” value (bamyardgrass; [9]) was 0 and the “Barnyardgrass plant response rating” value (bamyardgrass; [10]) was 0. For the same compound, the “Barnyardgrass plant response rating” value (bamyardgrass; [11]) was 0, the “Wild oats plant response rating” value (wild oat; [1]) was 0 and the “Wild oats plant response rating” value (wild oat; [12]) was 0. For the same compound, the “Wild oats plant response rating” value (wild oat; [3]) was 0, the “Plant response rating, Wild oats” value (wild oat; [4]) was 0 and the “Plant response rating, Wild oats” value (wild oat; [8]) was 2. The “Wild oats plant response rating” value (wild oat; [5]) was 3, the “Plant response rating, Wild oats” value (wild oat; [13]) was 0 and the “Wild oats plant response rating” value (wild oat; [14]) was 0.
CC(C)N(C(=O)n1oc(=O)n(-c2cnn(C)c2Cl)c1=O)c1ccc(F)cc1 [Compound 97] was tested, and the “B. signalgrass plant response rating” value (surinam grass; [1]) was 0, the “B. signalgrass plant response rating” value (surinam grass; [2]) was 0 and the “B. signalgrass plant response rating” value (surinam grass; [3]) was 0. The “Plant response rating, B. signalgrass” value (surinam grass; [4]) was 2, the “Plant response rating, B. signalgrass” value (surinam grass; [8]) was 3 and the “B. signalgrass plant response rating” value (surinam grass; [5]) was 4. The “B. signalgrass plant response rating” value (surinam grass; [6]) was 0, the “B. signalgrass plant response rating” value (surinam grass; [7]) was 0 and the “Bedstraw plant response rating” value (bedstraw; [1]) was 0. The “Bedstraw plant response rating” value (bedstraw; [2]) was 1, the “Plant response rating, Bedstraw” value (bedstraw; [4]) was 0 and the “Plant response rating, Bedstraw” value (bedstraw; [8]) was 0. For the same compound, the “Bedstraw plant response rating” value (bedstraw; [6]) was 0, the “Bedstraw plant response rating” value (bedstraw; [14]) was 3 and the “Barnyardgrass plant response rating” value (bamyardgrass; [1]) was 0. The “Barnyardgrass plant response rating” value (bamyardgrass; [9]) was 0, the “Barnyardgrass plant response rating” value (bamyardgrass; [10]) was 0 and the “Barnyardgrass plant response rating” value (bamyardgrass; [11]) was 0. For the same compound, the “Wild oats plant response rating” value (wild oat; [1]) was 0, the “Wild oats plant response rating” value (wild oat; [12]) was 0 and the “Wild oats plant response rating” value (wild oat; [3]) was 0. For the same compound, the “Wild oats plant response rating (0 to 10 scale)” value (wild oat; [15]) was 2, the “Plant response rating, Wild oats” value (wild oat; [8]) was 2 and the “Wild oats plant response rating” value (wild oat; [5]) was 5. For the same compound, the “Plant response rating, Wild oats” value (wild oat; [13]) was 0 and the “Wild oats plant response rating” value (wild oat; [14]) was 0.
With CCN(CC)C(=O)n1oc(=O)n(Cc2ccccc2)c1=O [Compound 152] the “B. signalgrass plant response rating” value (surinam grass; [12]) was 0, the “B. signalgrass plant response rating” value (surinam grass; [3]) was 0 and the “B. signalgrass plant response rating (0 to 10 scale)” value (surinam grass; [15]) was 4. For the same compound, the “B. signalgrass plant response rating” value (surinam grass; [16]) was 4, the “B. signalgrass plant response rating” value (surinam grass; [17]) was 6 and the “B. signalgrass plant response rating” value (surinam grass; [18]) was 0. The “Plant response rating, B. signalgrass” value (surinam grass; [13]) was 0, the “B. signalgrass plant response rating” value (surinam grass; [7]) was 0 and the “Bedstraw plant response rating” value (bedstraw; [12]) was 0. The “Bedstraw plant response rating” value (bedstraw; [3]) was 0, the “Bedstraw plant response rating (0 to 10 scale)” value (bedstraw; [15]) was 0 and the “Bedstraw plant response rating” value (bedstraw; [16]) was 0. For the same compound, the “Bedstraw plant response rating” value (bedstraw; [17]) was 0, the “Bedstraw plant response rating” value (bedstraw; [18]) was 0 and the “Plant response rating, Bedstraw” value (bedstraw; [13]) was 0. The “Bedstraw plant response rating” value (bedstraw; [14]) was 0, the “Barnyardgrass plant response rating” value (bamyardgrass; [19]) was 0 and the “Barnyardgrass plant response rating” value (bamyardgrass; [20]) was 0. The “Plant response rating, Barnyardgrass” value (bamyardgrass; [21]) was 0, the “Barnyardgrass plant response rating” value (bamyardgrass; [10]) was 0 and the “Wild oats plant response rating” value (wild oat; [3]) was 0. For the same compound, the “Wild oats plant response rating (0 to 10 scale)” value (wild oat; [15]) was 0, the “Wild oats plant response rating” value (wild oat; [16]) was 0 and the “Wild oats plant response rating” value (wild oat; [17]) was 0. The “Wild oats plant response rating” value (wild oat; [18]) was 0, the “Plant response rating, Wild oats” value (wild oat; [13]) was 0 and the “Wild oats plant response rating” value (wild oat; [22]) was 0.
With C=CCn1c(=O)on(C(=O)N(c2ccc(F)cc2)C2CC2)c1=O [Compound 154] the “B. signalgrass plant response rating” value (surinam grass; [12]) was 0, the “B. signalgrass plant response rating” value (surinam grass; [3]) was 0 and the “B. signalgrass plant response rating (0 to 10 scale)” value (surinam grass; [15]) was 0. For the same compound, the “B. signalgrass plant response rating” value (surinam grass; [16]) was 0, the “B. signalgrass plant response rating” value (surinam grass; [17]) was 4 and the “B. signalgrass plant response rating” value (surinam grass; [18]) was 0. The “Plant response rating, B. signalgrass” value (surinam grass; [13]) was 0, the “B. signalgrass plant response rating” value (surinam grass; [14]) was 2 and the “Bedstraw plant response rating” value (bedstraw; [12]) was 0. For the same compound, the “Bedstraw plant response rating” value (bedstraw; [3]) was 0, the “Bedstraw plant response rating (0 to 10 scale)” value (bedstraw; [15]) was 0 and the “Bedstraw plant response rating” value (bedstraw; [16]) was 0. The “Bedstraw plant response rating” value (bedstraw; [17]) was 0, the “Bedstraw plant response rating” value (bedstraw; [18]) was 0 and the “Plant response rating, Bedstraw” value (bedstraw; [13]) was 0. For the same compound, the “Barnyardgrass plant response rating” value (bamyardgrass; [19]) was 0, the “Barnyardgrass plant response rating” value (bamyardgrass; [20]) was 0 and the “Plant response rating, Barnyardgrass” value (bamyardgrass; [21]) was 0. For the same compound, the “Barnyardgrass plant response rating” value (bamyardgrass; Rate 250 g/ha, Pre-emergence, flood-test species, scale 0 to 10, 0 is no effect, 10 is complete control) was 0, the “Plant response rating, Barnyardgrass” value (bamyardgrass; Rate 500 g/ha, headed Pre-emergence (flood test species), scale 0 to 10 (0 no effect, 10 complete control)) was 0 and the “Barnyardgrass plant response rating” value (bamyardgrass; [23]) was 0. For the same compound, the “Barnyardgrass plant response rating” value (bamyardgrass; Rate 1000 g/ha, Pre-emergence (as headed), scale 0 to 10) was 0, the “Barnyardgrass plant response rating” value (bamyardgrass; Rate 2000 g/ha, Pre-emergence (as headed), scale 0 to 10, 0 no effect, 10 complete control) was 0 and the “Wild oats plant response rating” value (wild oat; [3]) was 0. The “Wild oats plant response rating (0 to 10 scale)” value (wild oat; [15]) was 0, the “Wild oats plant response rating” value (wild oat; [16]) was 4 and the “Wild oats plant response rating” value (wild oat; [17]) was 5. For the same compound, the “Wild oats plant response rating” value (wild oat; [18]) was 0, the “Plant response rating, Wild oats” value (wild oat; [13]) was 0 and the “Wild oats plant response rating” value (wild oat; [22]) was 1.
Cc1nsc(C)c1-n1c(=O)on(C(=O)N(c2ccc(Cl)cc2)C(C)C)c1=O [Compound 159] was tested, and the “B. signalgrass plant response rating” value (surinam grass; [12]) was 0, the “B. signalgrass plant response rating” value (surinam grass; [24]) was 0 and the “B. signalgrass plant response rating (0 to 10 scale)” value (surinam grass; [15]) was 0. For the same compound, the “B. signalgrass plant response rating” value (surinam grass; [16]) was 0, the “B. signalgrass plant response rating” value (surinam grass; [17]) was 0 and the “B. signalgrass plant response rating” value (surinam grass; [18]) was 0. The “Plant response rating, B. signalgrass” value (surinam grass; [13]) was 0, the “B. signalgrass plant response rating” value (surinam grass; [14]) was 0 and the “Bedstraw plant response rating” value (bedstraw; [12]) was 0. The “Bedstraw plant response rating” value (bedstraw; [24]) was 0, the “Bedstraw plant response rating (0 to 10 scale)” value (bedstraw; [15]) was 0 and the “Bedstraw plant response rating” value (bedstraw; [16]) was 0. The “Bedstraw plant response rating” value (bedstraw; [17]) was 0, the “Bedstraw plant response rating” value (bedstraw; [18]) was 0 and the “Plant response rating, Bedstraw” value (bedstraw; [13]) was 0. For the same compound, the “Bedstraw plant response rating” value (bedstraw; [22]) was 0, the “Barnyardgrass plant response rating” value (bamyardgrass; [19]) was 0 and the “Barnyardgrass plant response rating” value (bamyardgrass; [20]) was 0. For the same compound, the “Plant response rating, Barnyardgrass” value (bamyardgrass; [21]) was 0, the “Barnyardgrass plant response rating” value (bamyardgrass; [23]) was 0 and the “Wild oats plant response rating” value (wild oat; [24]) was 0. The “Wild oats plant response rating (0 to 10 scale)” value (wild oat; [15]) was 0, the “Wild oats plant response rating” value (wild oat; [16]) was 0 and the “Wild oats plant response rating” value (wild oat; [17]) was 0. The “Plant response rating, Wild oats” value (wild oat; [13]) was 0 and the “Wild oats plant response rating” value (wild oat; [22]) was 0.
